Laboratory results reported in US12433854B2, “Methods and compositions for preventing or treating calciphylaxis” (Epizon Pharma, Inc., priority 2018, dated 2025).
Like-named read-outs stand apart in the source and are kept apart here.

Assays:
[1] = system: subjects at risk of development of calciphylaxis; assay: MK-7 and/or MKH2-7 in subjects at risk for development of calciphylaxis (Example 1); assay type: in vivo, human; settings: 10 mg, 25 mg or 50 mg orally once daily; blood samples; contemplated
Excerpt: This example describes the administration of MK-7 and/or MKH2-7 to subjects at risk for development of calciphylaxis, but who have not yet developed the characteristic skin lesions of calciphylaxis. Risk factors to be considered include, but are not limited to, diabetes mellitus, obesity, ESRD and/or hemodialysis, and prior treatment with warfarin (Nigwekar et al. (2016), supra). It is contemplated that administration of MK-7 and/or MKH2-7 can result in protection of the subjects from skin lesions and a change in certain biomarker levels indicative of the prevention of the development of calciphylaxis.
(§1) Subjects at risk of development of calciphylaxis orally receive MK-7 and/or MKH2-7 at 10 mg, 25 mg or 50 mg once daily for at least 2 weeks, 4 weeks, 6 weeks, 8 weeks, 3 months, 6 months, 1 year, or indefinitely. The dosage form is a 10 mg or 25 mg soft-gel capsule. Two 25 mg capsules are be administered once daily to the 50 mg dosage cohort.
It should be noted that not all subjects with elevated risk factors for calciphylaxis will develop the characteristic skin lesions of calciphylaxis. The intent of treating with MK-7 and/or MKH2-7 proactively (prior to a clinical diagnosis of calciphylaxis) is the prevention of lesion appearance. Thus, a drop in frequency of, or elimination of lesion appearances is contemplated to be a successful treatment.
Several biomarkers can be assessed to determine the efficacy of MK-7 and/or MKH2-7 at the three dose levels. Exemplary biomarkers include PIVKA-II; uncarboxylated and total Matrix Gla Protein (MGP); uncarboxylated, carboxylated and total osteocalcin protein; uncarboxylated, carboxylated and total Protein C, osteoprotegerin, Fetuin A and hs-CRP.
Blood samples are obtained to measure the biomarkers according to the following schedule. Blood sampling can occur during treatment on a weekly or monthly basis. It is contemplated that administration of MK-7 and/or MKH2-7 will result in (i) an increase in PIVKA-II, osteoprotegerin, or Fetuin A, which is indicative of slowing the progression of, arresting, or reversing, calciphylaxis, (ii) a decrease in uncarboxylated MGP, uncarboxylated osteocalcin, and/or uncarboxylated Protein C, which is indicative of slowing the progression of, arresting, or reversing calciphylaxis.
Further, pulse wave velocity (PWV) can be measured to assess arterial compliance. Improved vascular compliance will be indicative of slowing the progression of, arresting, or reversing calciphylaxis.

[2] = system: osteocalcin; settings: 100-200 μg/d for 4 to 12 weeks; significantly and in a dose-dependent manner; cited from earlier work
[3] = system: subjects diagnosed with calciphylaxis; assay: MK-7 and/or MKH2-7 in subjects diagnosed with calciphylaxis (Example 2); assay type: in vivo, human; settings: 10 mg, 25 mg or 50 mg orally once daily; contemplated
Excerpt: This example describes the administration of MK-7 and/or MKH2-7 to subjects diagnosed with calciphylaxis. Typical symptoms include presentation of characteristic painful skin lesions (Nigwekar et al. (2015) “Calciphylaxis: Risk Factors, Diagnosis, and Treatment.” Am. J. Kidney Dis. 66:133-46). Definitive diagnosis of calciphylaxis is achieved via skin biopsy (Nigwekar, 2015 supra). Further conditions need to be considered for correct diagnosis (Id.).
as §1, with “diagnosed with” for “at risk of development of”, “are” for “are be”
The arrest of, or decreases in lesion size and frequency is contemplated to be an indication of successful treatment.
Additionally, because calciphylaxis has a considerable mortality risk, increased overall survival time of diagnosed subjects will be an indication of treatment success. It is contemplated that administration of MK-7 and/or MKH2-7 according to the foregoing will result in an increased overall survival time of diagnosed subjects.

[4] = system: subjects with ESRD receiving hemodialysis; assay: MK-7 in subjects with stable ESRD receiving hemodialysis: biomarker changes day 1 to day 15; assay type: in vivo, human; settings: 10 mg capsule of MK-7 per day orally for 14 days; change between day 1 and day 15
Procedure: This example describes the administration of MK-7 to subjects with ESRD receiving hemodialysis, and who are at risk of developing calciphylaxis. Administration of MK-7 can result in a change in certain biomarker levels indicative of the prevention of the development of calciphylaxis, or in the arrest or slowing down of the development of calciphylaxis. A number of subjects with stable ESRD but without calciphylaxis are enrolled in the study, whereupon the subjects orally receive a 10 mg capsule of MK-7 per day for 14 days. The levels of certain biomarkers, including uncarboxylated Matrix Gla Protein (MGP), uncarboxylated osteocalcin, osteoprotegerin, Fetuin A and hs-CRP were assessed on day 1 and on day 15 (the end of treatment), and the changes between day 1 and day 15 were calculated.

[5] = system: adult hemodialysis patients; settings: cited from earlier work
[6] = vitamin K2 supplementation, hemodialysis patients

Row | Compound | Fetuin A [1] | PIVKA-II [1] | osteoprotegerin [1] | uncarboxylated MGP [1] | uncarboxylated Protein C [1] | uncarboxylated osteocalcin [1] | ratio of carboxylated to undercarboxylated osteocalcin [2] | overall survival time of diagnosed subjects [3] | average increase in Fetuin A [4] [%] | average increase in osteoprotegerin [4] [%] | average reduction in hs-CRP [4] [%] | average reduction in uncarboxylated MGP [4] [%] | average reduction in uncarboxylated osteocalcin [4] [%] | response rate in the reduction in dp-ucMGP levels ([5]; group receiving 135 μg of menaquinone-7) [%] | response rate in the reduction in dp-ucMGP levels ([5]; group receiving 360 μg of menaquinone-7) [%] | circulating PIVKA-II levels [5, 6] | circulating dp-ucMGP levels [5, 6] | circulating uncarboxylated osteocalcin levels [5, 6]
1 | CC(C)=CCC/C(C)=C/CC/C(C)=C/CC/C(C)=C/CC/C(C)=C/CC/C(C)=C/CC/C(C)=C/CC1=C(C)C(=O)c2ccccc2C1=O [MK-7, 2-[(2E,6E,10E,14E,18E,22E)-3,7,11,15,19,23,27-heptamethyloctacosa-2,6,10,14,18,22,26-heptaenyl]-3-methylnaphthalene-1,4-dione] | increase | increase | increase | decrease | decrease | decrease | increase | increased | 23.1 | 14.5 | −35.8 | −21.9 | −55.5 | 77 | 93 | – | – | –
2 | CC(C)=CCC/C(C)=C/CC/C(C)=C/CC/C(C)=C/CC/C(C)=C/CC/C(C)=C/CC/C(C)=C/Cc1c(C)c(O)c2ccccc2c1O [MKH2-7, 2-[(2E,6E,10E,14E,18E,22E)-3,7,11,15,19,23,27-heptamethyloctacosa-2,6,10,14,18,22,26-heptaenyl]-3-methylnaphthalene-1,4-diol] | increase | increase | increase | decrease | decrease | decrease | – | increased | – | – | – | – | – | – | – | – | – | –
3 | Vitamin K2 | – | – | – | – | – | – | – | – | – | – | – | – | – | – | – | dose- and time-dependent decrease | dose- and time-dependent decrease | dose- and time-dependent decrease
